Results as given in PubChem BioAssay (NCI).
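A five-concentration, 48-hour dose response in 96-well plates underlies each endpoint, interpolated linearly between surrounding concentrations. GI50 = concentration required for 50% inhibition of growth. TGI: total growth inhibition.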

How the values were obtained:
Experiment in all cases: inhibition of tumour cell growth, NCI panel, 48 h
NCI-H23 lung = test system: NCI-H23 lung
CAKI-1 renal = test system: CAKI-1 renal
RPMI-8226 leukemia = test system: RPMI-8226 leukemia
SW-620 colon = test system: SW-620 colon
SK-MEL-28 melanoma = test system: SK-MEL-28 melanoma
UACC-62 melanoma = test system: UACC-62 melanoma
UO-31 renal = test system: UO-31 renal
RXF 393 renal = test system: RXF 393 renal
SK-MEL-5 melanoma = test system: SK-MEL-5 melanoma
SR leukemia = test system: SR leukemia
COLO 205 colon = test system: COLO 205 colon
TK-10 renal = test system: TK-10 renal
SK-MEL-2 melanoma = test system: SK-MEL-2 melanoma
NCI-H522 lung = test system: NCI-H522 lung
HCC-2998 colon = test system: HCC-2998 colon
IGROV1 ovarian = test system: IGROV1 ovarian
SF-539 CNS = test system: SF-539 CNS
NCI/ADR-RES ovarian = test system: NCI/ADR-RES ovarian
PC-3 prostate = test system: PC-3 prostate
SNB-19 CNS = test system: SNB-19 CNS
NCI-H226 lung = test system: NCI-H226 lung
BT-549 breast = test system: BT-549 breast
HL-60(TB) leukemia = test system: HL-60(TB) leukemia
A549 NSCLC = test system: A549 NSCLC
MALME-3M melanoma = test system: MALME-3M melanoma
DU-145 prostate = test system: DU-145 prostate
MOLT-4 leukemia = test system: MOLT-4 leukemia
HCT-116 colon = test system: HCT-116 colon
SNB-75 CNS = test system: SNB-75 CNS
OVCAR-3 ovarian = test system: OVCAR-3 ovarian
786-0 renal = test system: 786-0 renal
OVCAR-8 ovarian = test system: OVCAR-8 ovarian
SF-295 CNS = test system: SF-295 CNS
SN12C renal = test system: SN12C renal
SK-OV-3 ovarian = test system: SK-OV-3 ovarian
M14 melanoma = test system: M14 melanoma
NCI-H460 lung = test system: NCI-H460 lung
OVCAR-5 ovarian = test system: OVCAR-5 ovarian
ACHN renal = test system: ACHN renal
OVCAR-4 ovarian = test system: OVCAR-4 ovarian
HOP-62 NSCLC = test system: HOP-62 NSCLC
U251 CNS = test system: U251 CNS
MDA-MB-231 breast = test system: MDA-MB-231 breast
HCT-15 colon = test system: HCT-15 colon
UACC-257 melanoma = test system: UACC-257 melanoma
CCRF-CEM leukemia = test system: CCRF-CEM leukemia
MDA-MB-435 = test system: MDA-MB-435
HT29 colon = test system: HT29 colon
KM12 colon = test system: KM12 colon
HS 578T breast = test system: HS 578T breast
MCF7 breast = test system: MCF7 breast
K-562 leukemia = test system: K-562 leukemia
T-47D breast = test system: T-47D breast
HOP-92 NSCLC = test system: HOP-92 NSCLC
SF-268 CNS = test system: SF-268 CNS
A498 renal = test system: A498 renal
LOX IMVI melanoma = test system: LOX IMVI melanoma
EKVX NSCLC = test system: EKVX NSCLC
MDA-N = test system: MDA-N

Compound `CN(Cc1cccc(F)c1)c1ccc(CO)c(Cl)c1` has a GI50 (NCI-H23 lung) of 13.3 µM, a TGI (NCI-H23 lung) greater than 92.6 µM and a GI50 (CAKI-1 renal) of 3.05 µM. It also gave a TGI (CAKI-1 renal) greater than 61.3 µM, a GI50 (RPMI-8226 leukemia) of 13.3 µM and a TGI (RPMI-8226 leukemia) greater than 68.3 µM. It also gave a GI50 (SW-620 colon) of 5.13 µM, a TGI (SW-620 colon) greater than 100 µM and a GI50 (SK-MEL-28 melanoma) of 20.7 µM. The TGI (SK-MEL-28 melanoma) was greater than 100 µM, the GI50 (UACC-62 melanoma) was 288 nM and the TGI (UACC-62 melanoma) was 2420 nM. The GI50 (UO-31 renal) was 10.3 µM, the TGI (UO-31 renal) was 75.5 µM and the GI50 (RXF 393 renal) was 8.72 µM. For the same compound, the TGI (RXF 393 renal) was 41.7 µM, the GI50 (SK-MEL-5 melanoma) was 11 µM and the TGI (SK-MEL-5 melanoma) was 23.3 µM. For the same compound, the GI50 (SR leukemia) was 24.4 µM, the TGI (SR leukemia) was greater than 88.6 µM and the GI50 (COLO 205 colon) was 5.46 µM. For the same compound, the TGI (COLO 205 colon) was 19.3 µM, the GI50 (TK-10 renal) was 186 nM and the TGI (TK-10 renal) was 851 nM. The GI50 (SK-MEL-2 melanoma) was 8.39 µM, the TGI (SK-MEL-2 melanoma) was 33.7 µM and the GI50 (NCI-H522 lung) was 24.1 µM. It also gave a TGI (NCI-H522 lung) of 75.5 µM, a GI50 (HCC-2998 colon) of 13.2 µM and a TGI (HCC-2998 colon) of 42.5 µM. It also gave a GI50 (IGROV1 ovarian) of 361 nM, a TGI (IGROV1 ovarian) of 3.05 µM and a GI50 (SF-539 CNS) of 33.2 µM. For the same compound, the TGI (SF-539 CNS) was greater than 100 µM, the GI50 (NCI/ADR-RES ovarian) was 17.5 µM and the TGI (NCI/ADR-RES ovarian) was 58 µM. It also gave a GI50 (PC-3 prostate) of 23.7 µM, a TGI (PC-3 prostate) of 98.8 µM and a GI50 (SNB-19 CNS) of 32.8 µM. It also gave a TGI (SNB-19 CNS) greater than 100 µM, a GI50 (NCI-H226 lung) of 123 nM and a TGI (NCI-H226 lung) of 275 nM. For the same compound, the GI50 (BT-549 breast) was 17.9 µM, the TGI (BT-549 breast) was 60.9 µM and the GI50 (HL-60(TB) leukemia) was 22 µM. The TGI (HL-60(TB) leukemia) was greater than 77.2 µM, the GI50 (A549 NSCLC) was 4.91 µM and the TGI (A549 NSCLC) was 37 µM. For the same compound, the GI50 (MALME-3M melanoma) was 27.5 µM, the TGI (MALME-3M melanoma) was greater than 88.9 µM and the GI50 (DU-145 prostate) was 29.7 µM. It also gave a TGI (DU-145 prostate) greater than 100000 nM, a GI50 (MOLT-4 leukemia) of 29 µM and a TGI (MOLT-4 leukemia) greater than 83.5 µM. The GI50 (HCT-116 colon) was 392 nM, the TGI (HCT-116 colon) was 13.7 µM and the GI50 (SNB-75 CNS) was 14.4 µM. The TGI (SNB-75 CNS) was 51.6 µM, the GI50 (OVCAR-3 ovarian) was 3.08 µM and the TGI (OVCAR-3 ovarian) was 15 µM. It also gave a GI50 (786-0 renal) of 13 µM, a TGI (786-0 renal) of 41.2 µM and a GI50 (OVCAR-8 ovarian) of 20.3 µM. The TGI (OVCAR-8 ovarian) was greater than 100 µM, the GI50 (SF-295 CNS) was 3.6 µM and the TGI (SF-295 CNS) was greater than 100 µM. The GI50 (SN12C renal) was 22.3 µM, the TGI (SN12C renal) was greater than 100 µM and the GI50 (SK-OV-3 ovarian) was 11.4 µM. For the same compound, the TGI (SK-OV-3 ovarian) was 50.4 µM, the GI50 (M14 melanoma) was 20.4 µM and the TGI (M14 melanoma) was 83 µM. For the same compound, the GI50 (NCI-H460 lung) was 1280 nM, the TGI (NCI-H460 lung) was 13.5 µM and the GI50 (OVCAR-5 ovarian) was 410 nM. The TGI (OVCAR-5 ovarian) was 2610 nM, the GI50 (ACHN renal) was 37.3 µM and the TGI (ACHN renal) was greater than 100000 nM. It also gave a GI50 (OVCAR-4 ovarian) of 1610 nM, a TGI (OVCAR-4 ovarian) of 17 µM and a GI50 (HOP-62 NSCLC) of 4.84 µM. For the same compound, the TGI (HOP-62 NSCLC) was 47.8 µM, the GI50 (U251 CNS) was 4.57 µM and the TGI (U251 CNS) was 30.6 µM. The GI50 (MDA-MB-231 breast) was 24.7 µM, the TGI (MDA-MB-231 breast) was greater than 100 µM and the GI50 (HCT-15 colon) was 17.7 µM. For the same compound, the TGI (HCT-15 colon) was greater than 83.2 µM, the GI50 (UACC-257 melanoma) was 304 nM and the TGI (UACC-257 melanoma) was 1330 nM. The GI50 (CCRF-CEM leukemia) was 31.1 µM, the TGI (CCRF-CEM leukemia) was greater than 100 µM and the GI50 (MDA-MB-435) was 15.7 µM. For the same compound, the TGI (MDA-MB-435) was 57.6 µM, the GI50 (HT29 colon) was 7.02 µM and the TGI (HT29 colon) was 59.7 µM. The GI50 (KM12 colon) was 20.5 µM, the TGI (KM12 colon) was 79.6 µM and the GI50 (HS 578T breast) was 25 µM. It also gave a TGI (HS 578T breast) greater than 100 µM, a GI50 (MCF7 breast) of 1030 nM and a TGI (MCF7 breast) of 26.3 µM. The GI50 (K-562 leukemia) was 8.99 µM, the TGI (K-562 leukemia) was greater than 100 µM and the GI50 (T-47D breast) was 548 nM. For the same compound, the TGI (T-47D breast) was 3.92 µM, the GI50 (HOP-92 NSCLC) was 3.37 µM and the TGI (HOP-92 NSCLC) was 28.1 µM. It also gave a GI50 (SF-268 CNS) of 34.4 µM, a TGI (SF-268 CNS) greater than 100 µM and a GI50 (A498 renal) of 57 nM. For the same compound, the TGI (A498 renal) was 189 nM, the GI50 (LOX IMVI melanoma) was 23.5 µM and the TGI (LOX IMVI melanoma) was 75.9 µM. The GI50 (EKVX NSCLC) was 27.2 µM and the TGI (EKVX NSCLC) was greater than 100000 nM.
For `CC(=O)OC1C(C)OC(OC(=O)C2CCC3C(C2)OC2(CC(OC(=O)/C=C/c4ccccc4)C(C)CO2)C32CO2)C(OC2OC(C)C(O)C(OC(C)=O)C2O)C1O` (stereo unspecified), the TGI (NCI-H23 lung) was less than 0.01 µM, the TGI (RPMI-8226 leukemia) was less than 0.01 µM and the TGI (UACC-62 melanoma) was less than 10 nM. The TGI (UO-31 renal) was 2.96 µM, the TGI (RXF 393 renal) was less than 0.0434 µM and the TGI (SK-MEL-5 melanoma) was 0.165 µM. It also gave a TGI (COLO 205 colon) greater than 100 µM, a TGI (TK-10 renal) greater than 100000 nM and a TGI (SK-MEL-2 melanoma) of less than 0.01 µM. For the same compound, the TGI (HCC-2998 colon) was less than 0.01 µM, the TGI (IGROV1 ovarian) was less than 0.01 µM and the TGI (PC-3 prostate) was 0.0402 µM. It also gave a TGI (NCI-H226 lung) of less than 10 nM, a TGI (BT-549 breast) of less than 0.0335 µM and a TGI (MALME-3M melanoma) of less than 0.01 µM. The TGI (DU-145 prostate) was 21.3 nM, the TGI (MOLT-4 leukemia) was less than 0.01 µM and the TGI (SNB-75 CNS) was less than 0.01 µM. For the same compound, the TGI (SF-295 CNS) was less than 0.0304 µM, the TGI (SN12C renal) was less than 0.01 µM and the TGI (SK-OV-3 ovarian) was greater than 100 µM. For the same compound, the TGI (M14 melanoma) was 0.104 µM, the TGI (NCI-H460 lung) was less than 0.0125 µM and the TGI (OVCAR-5 ovarian) was 40.7 nM. It also gave a TGI (ACHN renal) of 1190 nM, a TGI (HOP-62 NSCLC) greater than 100 µM and a TGI (U251 CNS) of less than 0.01 µM. It also gave a TGI (MDA-N) of less than 10 nM, a TGI (HCT-15 colon) of 5.8 µM and a TGI (UACC-257 melanoma) of less than 13.7 nM. It also gave a TGI (MDA-MB-435) of less than 0.01 µM, a TGI (HT29 colon) of less than 0.01 µM and a TGI (KM12 colon) of less than 0.0123 µM. For the same compound, the TGI (HS 578T breast) was less than 0.01 µM, the TGI (MCF7 breast) was greater than 100 µM and the TGI (K-562 leukemia) was greater than 100 µM. It also gave a TGI (SF-268 CNS) of less than 0.0136 µM, a TGI (A498 renal) of 286 nM and a TGI (LOX IMVI melanoma) of less than 0.01 µM. It also gave a TGI (EKVX NSCLC) of 1270 nM.
